Reference: patent US7416741B2, “Copper lowering treatment of inflammatory and fibrotic diseases” (The Regents of the University of Michigan, priority 2002, dated 2008)

Columns and labels:
cancer patients = assay: TM therapy in cancer patients; assay type: in vivo, human; settings: 180 mg/day induction dose
Procedure: TM has also shown positive effects in spontaneous canine cancers. A clinical phase ½ study of a variety of metastatic and advanced cancers has shown positive results, with an average of 11 months freedom from progression in evaluable patients, and long term stabilization in three patients (G J Brewer et al., Clin. Cancer Res., 6:1-10 [2000]). A number of phase 2 studies of specific cancers are under way.
The current cancer therapy induction dose for TM is 40 mg 3×daily with meals and 60 mg at bedtime separated from food (180 mg/day). At this dose, it takes 15-25 days to induce cancer patients into the Cp target range. This same induction dose is used for IPF patients. All patients remain on their induction doses until they reach target Cp levels, then are switched to maintenance therapy.

[1] = system: Wilson's disease patients; assay: Open label study of TM for initial treatment of neurologically presenting Wilson's disease patients; assay type: in vivo, human
Text: The results in the first patient studied can be used to illustrate several points. For the first seven days, the patient received TM only with meals (tid with meals). This produced the immediate negative copper balance one would expect from the first mechanism of action (blockade of copper absorption when given with meals). After the first seven days, TM was given between meals as well (tid with meals, and tid between meals). This led to the immediate rise in plasma copper expected from absorption of TM into the blood, and formation of a complex of copper, TM, and albumin. The copper complexed with TM and albumin is unavailable for cellular uptake, and this copper is therefore non-toxic. There is a 1:1 stochiometric relationship between molybdenum and copper in this complex. Knowing the molybdenum level in the blood, and the ceruloplasmin level (ceruloplasmin also contains copper that is non-toxic), one can calculate how much of the plasma copper is not bound to one or the other. This so-called “free copper” (non-ceruloplasmin plasma copper) is the potentially toxic copper. When reduced to zero, the plasma copper-molybdenum “gap” is closed. This took 16 days in the first patient (9 days after adding the between meal doses). Since in the brain (and in other organs), free copper is in equilibrium with the blood, decreasing the blood free copper to a low level begins the process of lowering the brain level of free (toxic) copper.
The inventors have treated initially 56 Wilson's disease patients with TM, all of whom presented with neurological or psychiatric disease, in an open label study. These patients were all diagnosed by standard criteria. […] Some of them were treated briefly with other agents prior to this trial. Two patients had psychiatric but not neurological symptoms.
With three exceptions in the earliest part of the study, all patients received a dose of 20 mg tid with meals, or qid with three meals and a snack. Thus, the only difference between a patient receiving 120 mg and 140 mg total dose is that the former was receiving 20 mg tid, or 60 mg, with meals, and the latter was receiving 20 mg qid, or 80 mg with meals plus a snack. The rest of the total daily dose was divided up into three equal doses and given between meals.
Measuring trichloracetic acid (TCA) soluble copper of the plasma is somewhat useful in assessing the impact of TM therapy on copper metabolism in Wilson's disease. Generally, a high proportion of plasma copper in these patients is TCA soluble (it averaged 56% in patients which is 27 p.g/dl). All of the non-ceruloplasmin plasma copper is TCA soluble, and a somewhat variable portion of the ceruloplasmin copper is also TCA soluble. Because the ceruloplasmin levels are usually rather low in Wilson's disease, most of the plasma copper is TCA soluble. The copper in the TM/albumin/copper complex in the blood is TCA insoluble. Thus, as therapy proceeds, the fraction of the plasma copper that is TCA soluble becomes smaller. […] The TCA soluble fraction cannot be used as an absolute endpoint, for example attempting to reduce it to zero, because a small and somewhat variable soluble fraction is usually present due to plasma ceruloplasmin. However, the significant mean reduction from 27 to 15 p.g/dl illustrates the beneficial effect that TM therapy has on the status of the potentially toxic plasma copper in these patients. Further evidence of the desirable impact of TM therapy on copper metabolism is shown by reduction of mean urine copper values during the latter part of TM therapy, compared to baseline values.
TM has a quick and favorable impact on copper metabolism, reducing the levels of potentially toxic copper of the blood and as contemplated the rest of the body as well. The primary clinical objective in treatment of Wilson's disease is to gain control over copper toxicity while not allowing worsening of the disease or symptoms. […]

Lysyl oxidase = Lysyl oxidase in the lungs, bleomycin model; assay type: in vivo, mouse; settings: Ex 2 Exp 1; TM treated vs non-TM treated animals
TNFα = assay: Lung TNFα mRNA by real time RT-PCR, bleomycin model; assay type: in vivo, mouse; settings: Ex 2 Exp 1; bleomycin/TM; day 7
Procedure: Cytokine assays. Expression of TNFα and TGFβ was determined in lung tissues from the various experiments. TNFα mRNA was measured in total RNA isolated from lung tissue homogenates. Primer Express 2.0 software (Applied Biosystems, Foster City, Calif.) was used to design Taqman primers and MGB probes (6-FAM conjugated) for TNFα, which were then purchased from Applied Biosystems (PE/ABI, Foster City, Calif.). Primers and probes for GAPDH were purchased from PE/ABI. GAPDH mRNA was used as internal control to normalize the amount of input RNA. One-step real time RT-PCR was undertaken with Taqman One Step RT-PCR Master Mix (PE/ABI) using a GeneAmp 5700 Sequence Detection System (PE/ABI). Results were expressed as the threshold cycle (CT) at which an increase of reporter fluorescence (ΔRn) can first be detected. The levels of TNFα mRNA were normalized to the internal control GAPDH signals and expressed as 2^−ΔΔCT.

[2] = system: animal model of renal fibrosis; assay: Streptozotocin rat model of renal fibrosis; assay type: in vivo; settings: Ex 7
Procedure: A study is carried out in an animal model of renal fibrosis. After kidney injury of almost any type, a diffuse interstitial fibrosis (believed to be due to over-activity of the TGFβ pathway) produces kidney failure. Rats are made diabetic by administering streptozotocin; renal fibrosis is typically well developed by 60 days after initiation of streptozotocin administration. TM therapy is initiated at varying times relative to streptozotocin administration in several groups of rats, and the results compared to control groups not receiving TM. Typically, at least three […] are present in each experimental group. In one group, TM therapy is initiated prior to streptozotocin administration, to determine whether TM therapy mitigates the pancreatic damage, as it mitigates hepatitis/cirrhosis in the concanavilin A mouse model described above. In other groups, TM is started after streptozotocin administration, at various times, to determine if it can mitigate the renal fibrosis that develops after streptozotocin administration.

rodent cancer models = settings: five different rodent cancer models; cited from earlier work
[3] = among the seven anemia patients

## [SH-].[SH-].[S]=[Mo]=[S] [TM, tetrathiomolybdate]
Cancer patients
  time to induce patients into the Cp target range: 15 to 25 days
[1]; 56 patients
  patients with reversible anemia/bone marrow depression: seven
[1]; all treated with 150 mg TM/day or higher
  patients with elevation of transaminase values (serum AST and ALT): four of the patients
[1]; [3]
  patients with reduction in platelet count: Three of the patients
  patients with reduction in white blood cell count: four of the patients
[1]; average in the seven anemia patients
  fall in hemoglobin: 3.4%
[1]; dose of 180 mg/day or over
  overtreatment incidence: 6 of 37
[1]; dose of 150 or lower
  overtreatment incidence: 1 of 13
[1]; during weeks of TM administration, two patients
  patients with change of more than 5 units in quantitative neurological exam (significant worsening): 4%
[1]; first patient, TM tid with meals, from day 7 also tid between meals
  time to close the plasma copper-molybdenum gap (free copper reduced to zero): 16 days
[1]; initial 8 weeks of TM therapy
  quantitative speech exam scores: No patient shows significant (more than 2.0 units) reduction in scores
Lysyl oxidase
  lysyl oxidase activity in the lungs: not inhibited
TNFα
  lung TNFα mRNA levels, bleomycin-induced increase: almost completely, and significantly, inhibited this increase
[2]; TM after diabetes is induced
  renal fibrosis: mitigates the renal fibrosis
[2]; TM before streptozotocin
  pancreatic damage: mitigates pancreatic damage
Rodent cancer models
  inhibition of tumor growth: dramatic effects on inhibition of tumor growth
